Source: US9932637B2, “Genetic polymorphisms associated with cardiovascular disorders and drug response, methods of detection and uses thereof” (CELERA CORPORATION, priority 2003, dated 2018)

Tested on: patients with prior myocardial infarction (CARE study)
Experiment: CARE: association of SNPs with pravastatin treatment in cardiovascular events prevention (logistic regression, odds ratio pravastatin vs placebo by genotype; Table 8)
Format: in vivo, human
Description: In order to identify genetic markers associated with acute coronary events (e.g. MI, stroke, unstable angina, congestive heart failure, etc.) or response to statin treatment for the prevention of coronary events, samples from the Cholesterol and Recurrent Events (CARE) study (a randomized multicentral double-blinded trial on secondary prevention of acute coronary events with pravastatin) (Sacks et al., 1991, Am. J. Cardiol. 68: 1436-1446) were genotyped. A well-documented myocardial infarction (MI) was one of the enrollment criteria for entry into the CARE study. Patients were enrolled in the CARE trial from 80 participating study centers. […] Patients were randomized to receive either 40 mg of pravastatin once daily or a matching placebo. The primary endpoint of the trial was death from coronary heart disease and the median duration of follow-up was 5.0 years (range, 4.0 to 6.2 years). […] Secondary endpoints of other related cardiovascular or metabolic disease events, and changes in clinical variables were also recorded in pravastatin-treated and placebo groups. All individuals included in the study had signed a written informed consent form and the study protocol was approved by the respective Institutional Review Boards (IRBs).
For genotyping SNPs in CARE patient samples, DNA was extracted from blood samples using conventional DNA extraction methods such as the QIA-amp kit from Qiagen. Genotypes were obtained on an ABI PRISM® 7900HT Sequence Detection PCR system (Applied Biosystems, Foster City, Calif.) by kinetic allele-specific PCR, similar to the method described by Germer et al. (Germer S., Holland M. J., Higuchi R. 2000, Genome Res. 10: 258-266).
Statistical analysis for association of SNPs with pravastatin treatment in cardiovascular events prevention (Table 8) was carried out using an overall logistic regression model that included an intercept, a parameter for the effect of a genotype containing two rare alleles versus a genotype containing no rare alleles, a parameter for the effect of a genotype containing one rare allele versus a genotype containing no rare alleles, a parameter for the effect of use of pravastatin versus the use of placebo, and parameters for the interaction effects between SNP genotypes and pravastatin use. The test of the overall model is a chi-square test with two degrees of freedom for analyses containing all three genotypes, and one degree of freedom for analyses containing two genotypes.
Effect sizes were estimated through odds ratios (pravastatin group versus placebo) for carriers of each genotype (groups of 0, 1, and 2 minor allele carriers). The effect was considered to be significant if p-value for testing whether any of the interactions between SNP genotypes and pravastatin use were <0.05. […] Odds ratios less than one indicate that the specific SNP allele has a protective effect and odds ratios greater than one indicate that the specific SNP allele has an adverse effect.

[1] = CXCL16 hCV8718197, All Patients, Cardiovascular Mortality
[2] = CXCL16 hCV8718197, All Patients, Coronary Artery Bypass or Revascularization
[3] = CXCL16 hCV8718197, All Patients, Fatal Atherosclerotic Cardiovascular Disease
[4] = CXCL16 hCV8718197, All Patients, Fatal CHD/Definite Non-fatal MI
[5] = CXCL16 hCV8718197, All Patients, Fatal/Non-fatal MI (def & prob)
[6] = CXCL16 hCV8718197, All Patients, Hosp. for Cardiovascular Disease
[7] = CXCL16 hCV8718197, All Patients, Total Cardiovascular Disease Events
[8] = CXCL16 hCV8718197, All Patients, Total Coronary Heart Disease
[9] = CYP4F2 hCV16179493, All Patients, 0 Rare Alleles, Prava arm
[10] = CYP4F2 hCV16179493, All Patients, 1 Rare Allele, Prava arm
[11] = CYP4F2 hCV16179493, All Patients, 2 Rare Alleles, Prava arm
[12] = ELN hCV1253630, All Patients, 0 Rare Alleles, Prava, n/total 45/543

## CC[C@H](C)C(=O)O[C@H]1C[C@H](O)C=C2C=C[C@H](C)[C@H](CC[C@@H](O)C[C@@H](O)CC(=O)O)[C@H]21 [pravastatin]
CXCL16 hCV8718197, All Patients, 2 Rare Alleles, Prava, n/total 19/292
  Fatal Atherosclerotic Cardiovascular Disease, n/total (%): (6.5%)
CXCL16 hCV8718197, All Patients, 2 Rare Alleles, Prava, n/total 34/292
  Fatal CHD/Definite Non-fatal MI, n/total (%): (11.6%)
CXCL16 hCV8718197, All Patients, 2 Rare Alleles, Prava, n/total 36/292
  Fatal/Non-fatal MI (def & prob), n/total (%): (12.3%)
CXCL16 hCV8718197, All Patients, 2 Rare Alleles, Prava, n/total 43/292
  Coronary Artery Bypass or Revascularization, n/total (%): (14.7%)
CXCL16 hCV8718197, All Patients, 2 Rare Alleles, Prava, n/total 94/292
  Total Coronary Heart Disease Events, n/total (%): (32.2%)
CXCL16 hCV8718197, All Patients, 2 Rare Alleles, Prava, n/total 124/292
  Hosp. for Cardiovascular Disease, n/total (%): (42.5%)
CXCL16 hCV8718197, All Patients, 2 Rare Alleles, Prava, n/total 130/292
  Total Cardiovascular Disease Events, n/total (%): (44.5%)
[1]
  Prava vs. Placebo Odds Ratio, 0 Rare Alleles: 0.45
  Prava vs. Placebo Odds Ratio, 1 Rare Alleles: 0.80
  Prava vs. Placebo Odds Ratio, 2 Rare Alleles: 2.08
[2]
  Prava vs. Placebo Odds Ratio, 0 Rare Alleles: 0.45
  Prava vs. Placebo Odds Ratio, 1 Rare Alleles: 0.93
  Prava vs. Placebo Odds Ratio, 2 Rare Alleles: 0.70
[3]
  Prava vs. Placebo Odds Ratio, 0 Rare Alleles: 0.45
  Prava vs. Placebo Odds Ratio, 1 Rare Alleles: 0.76
  Prava vs. Placebo Odds Ratio, 2 Rare Alleles: 2.08
[4]
  Prava vs. Placebo Odds Ratio, 0 Rare Alleles: 0.44
  Prava vs. Placebo Odds Ratio, 1 Rare Alleles: 0.82
  Prava vs. Placebo Odds Ratio, 2 Rare Alleles: 1.05
[5]
  Prava vs. Placebo Odds Ratio, 0 Rare Alleles: 0.38
  Prava vs. Placebo Odds Ratio, 1 Rare Alleles: 0.80
  Prava vs. Placebo Odds Ratio, 2 Rare Alleles: 0.92
[6]
  Prava vs. Placebo Odds Ratio, 0 Rare Alleles: 0.59
  Prava vs. Placebo Odds Ratio, 1 Rare Alleles: 0.89
  Prava vs. Placebo Odds Ratio, 2 Rare Alleles: 0.80
[7]
  Prava vs. Placebo Odds Ratio, 0 Rare Alleles: 0.56
  Prava vs. Placebo Odds Ratio, 1 Rare Alleles: 0.90
  Prava vs. Placebo Odds Ratio, 2 Rare Alleles: 0.81
[8]
  Prava vs. Placebo Odds Ratio, 0 Rare Alleles: 0.57
  Prava vs. Placebo Odds Ratio, 1 Rare Alleles: 0.92
  Prava vs. Placebo Odds Ratio, 2 Rare Alleles: 0.82
[9]
  Cardiovascular Mortality, n/total (%): (3.3%)
  Catheterization, n/total (%): (10.5%)
  Fatal Atherosclerotic Cardiovascular Disease, n/total (%): (3.2%)
  Fatal Coronary Heart Disease, n/total (%): (2.5%)
  Total Mortality, n/total (%): (4.7%)
[10]
  Cardiovascular Mortality, n/total (%): (4.4%)
  Catheterization, n/total (%): (8.6%)
  Fatal Atherosclerotic Cardiovascular Disease, n/total (%): (4.4%)
  Fatal Coronary Heart Disease, n/total (%): (4.2%)
  Total Mortality, n/total (%): (6.6%)
[11]
  Cardiovascular Mortality, n/total (%): (2.1%)
  Catheterization, n/total (%): (16.7%)
  Fatal Atherosclerotic Cardiovascular Disease, n/total (%): (2.1%)
  Fatal Coronary Heart Disease, n/total (%): (2.1%)
  Total Mortality, n/total (%): (4.2%)
ELN hCV1253630, All Patients, 0 Rare Alleles, Prava, n/total 42/543
  Non-fatal MI (def & prob), n/total (%): (7.7%)
[12]
  Fatal CHD/Definite Non-fatal MI, n/total (%): (8.3%)
  Fatal/Non-fatal MI (def & prob), n/total (%): (8.3%)
ELN hCV1253630, All Patients, 0 Rare Alleles, Prava, n/total 146/543
  Total Coronary Heart Disease Events, n/total (%): (26.9%)
ELN hCV1253630, All Patients, 0 Rare Alleles, Prava, n/total 204/543
  Hosp. for Cardiovascular Disease, n/total (%): (37.6%)
ELN hCV1253630, All Patients, 0 Rare Alleles, Prava, n/total 212/543
  Total Cardiovascular Disease Events, n/total (%): (39.0%)
ELN hCV1253630, All Patients, 1 Rare Allele, Prava, n/total 62/724
  Non-fatal MI (def & prob), n/total (%): (8.6%)
ELN hCV1253630, All Patients, 1 Rare Allele, Prava, n/total 65/724
  Fatal CHD/Definite Non-fatal MI, n/total (%): (9.0%)
ELN hCV1253630, All Patients, 1 Rare Allele, Prava, n/total 68/724
  Fatal/Non-fatal MI (def & prob), n/total (%): (9.4%)
ELN hCV1253630, All Patients, 1 Rare Allele, Prava, n/total 206/724
  Total Coronary Heart Disease Events, n/total (%): (28.5%)
ELN hCV1253630, All Patients, 1 Rare Allele, Prava, n/total 291/724
  Hosp. for Cardiovascular Disease, n/total (%): (40.2%)
ELN hCV1253630, All Patients, 1 Rare Allele, Prava, n/total 298/724
  Total Cardiovascular Disease Events, n/total (%): (41.2%)
